Laboratory results reported in paper PMC8062632, “Structural studies of phosphorylation-dependent interactions between the V2R receptor and arrestin-2” (Nature Communications, 2021).

How the values were obtained:
Assay type in all cases: cell-based
[1] = system: V2R-6-7 (V2R-S363A/S364A); assay: FlAsH-BRET recruitment of MEK1 to arrestin2; details: HEK293 cells; for ΔBRET ratio, MEK1 recruitment to arrestin2: V2R-6-7, Argipressin 10 μM, 37 °C, 10 min
Protocol: (§1) The blue ball: K357 site in arrestin2; Yellow pentagram: the position of FlAsH labeled in MEK1. […] Data are expressed as ΔBRET ratio relative values and represent the mean ± SEM of three independent experiments (n = 3). […] Source data are provided in the Source Data file.
(§2) 24 h after transfection, the cells were detached and distributed into 96-well plates at a density of ~25,000 cells per well. After another 24 h of incubation at 37 °C, the cells were labeled FlAsH-EDT2 for 40 min at 37 °C and washed twice with Tyrode’s buffer (140 mM NaCl, 2.7 mM KCl, 1 mM CaCl2, 12 mM NaHCO3, 5.6 mM D-glucose, 0.5 mM MgCl2, 0.37 mM NaH2PO4, and 25 mM HEPES, pH = 7.4) and stimulated with or without Argipressin (final concentration of 10 μM) at 37 °C for 10 min Luciferase substrate coelenterazine-h was added at a final concentration of 5 μM before light emissions were recorded using a Mithras LB940 microplate reader (Berthold Technologies) equipped with BRET filter sets. The BRET signal was determined by calculating the ratio of the light intensity emitted by YFP ([…]) over the light intensity emitted by Rluc ([…]). Source data are provided in a Source Data file.

[2] = system: V2R-4 (V2R-T360A); assay: FlAsH-BRET recruitment of MEK1 to arrestin2; details: HEK293 cells; for ΔBRET ratio, MEK1 recruitment to arrestin2: V2R-4, Argipressin 10 μM, 37 °C, 10 min
Protocol: as §1, §2

[3] = system: V2R-3 (V2R-S357A); assay: FlAsH-BRET recruitment of MEK1 to arrestin2; details: HEK293 cells; for ΔBRET ratio, MEK1 recruitment to arrestin2: V2R-3, Argipressin 10 μM, 37 °C, 10 min
Protocol: as §1, §2

[4] = system: V2R-1 (V2R-T347A); assay: FlAsH-BRET recruitment of MEK1 to arrestin2; details: HEK293 cells; for ΔBRET ratio, MEK1 recruitment to arrestin2: V2R-1, Argipressin 10 μM, 37 °C, 10 min
Protocol: as §1, §2

[5] = system: V2R-WT; assay: FlAsH-BRET recruitment of MEK1 to arrestin2; details: HEK293 cells; for ΔBRET ratio, MEK1 recruitment to arrestin2: V2R-WT, Argipressin 10 μM, 37 °C, 10 min
Protocol: as §1, §2

[6] = system: V2R-6-7 (V2R-S363A/S364A); assay: FlAsH-BRET recruitment of c-Raf-1 to arrestin2; details: HEK293 cells; for ΔBRET ratio, c-Raf-1 recruitment to arrestin2: V2R-6-7, Argipressin 10 μM, 37 °C, 10 min
Protocol: (§3) The interaction between arrestin2 and c-Raf-1 was measured by the FlAsH-BRET method. […] Data are expressed as relative values of ΔBRET ratio with the mean ± SEM of three independent experiments (n = 3). […] Source data are provided in the Source. Data file.
(§4) After 24 h of transfection, the cells were detached and distributed into 96-well plates at a density of ~25,000 cells per well. After another 24 h incubation at 37 °C, the cells were labeled FlAsH-EDT2 for 40 min at 37 °C and washed twice with Tyrode’s buffer (140 mM NaCl, 2.7 mM KCl, 1 mM CaCl2, 12 mM NaHCO3, 5.6 mM D-glucose, 0.5 mM MgCl2, 0.37 mM NaH2PO4, and 25 mM HEPES, pH = 7.4) and stimulated with or without Argipressin (final concentration of 10 μM) at 37 °C for 10 min Luciferase substrate coelenterazine-h was added at a final concentration of 5 μM before light emissions were recorded using a Mithras LB940 microplate reader (Berthold Technologies) equipped with BRET filter sets. The BRET signal was determined by calculating the ratio of the light intensity emitted by YFP ([…]) over the light intensity emitted by Rluc ([…]). Source data are provided in a Source Data file.

[7] = system: V2R-4 (V2R-T360A); assay: FlAsH-BRET recruitment of c-Raf-1 to arrestin2; details: HEK293 cells, Argipressin 10 μM, 37 °C, 10 min
Protocol: as §3, §4

[8] = system: V2R-3 (V2R-S357A); assay: FlAsH-BRET recruitment of c-Raf-1 to arrestin2; details: HEK293 cells, Argipressin 10 μM, 37 °C, 10 min
Protocol: as §3, §4

[9] = system: V2R-1 (V2R-T347A); assay: FlAsH-BRET recruitment of c-Raf-1 to arrestin2; details: HEK293 cells; for ΔBRET ratio, c-Raf-1 recruitment to arrestin2: V2R-1, Argipressin 10 μM, 37 °C, 10 min
Protocol: as §3, §4

[10] = system: V2R-WT; assay: FlAsH-BRET recruitment of c-Raf-1 to arrestin2; details: HEK293 cells, Argipressin 10 μM, 37 °C, 10 min
Protocol: as §3, §4

## vasopressin
[1]; S363A-S364A mutations of V2R, in words
  MEK1-arrestin2 association in response to vasopressin stimulation: almost abolished
[1]; Data1
  ΔBRET ratio, MEK1 recruitment to arrestin2: 0
[1]; Data2
  ΔBRET ratio, MEK1 recruitment to arrestin2: 0.001
[1]; Data3
  ΔBRET ratio, MEK1 recruitment to arrestin2: 0
[2]; T360A mutation of V2R, in words
  MEK1-arrestin2 association in response to vasopressin stimulation: almost abolished
[2]; Data1
  ΔBRET ratio, MEK1 recruitment to arrestin2: 0
[2]; Data2
  ΔBRET ratio, MEK1 recruitment to arrestin2: -0.002
[2]; Data3
  ΔBRET ratio, MEK1 recruitment to arrestin2: -0.003
[3]; S357A mutation of V2R, in words
  MEK1-arrestin2 association in response to vasopressin stimulation: almost abolished
[3]; Data1
  ΔBRET ratio, MEK1 recruitment to arrestin2: 0
[3]; Data2
  ΔBRET ratio, MEK1 recruitment to arrestin2: 0.001
[3]; Data3
  ΔBRET ratio, MEK1 recruitment to arrestin2: 0.001
[4]; Data1
  ΔBRET ratio, MEK1 recruitment to arrestin2: 0.008
[4]; Data2
  ΔBRET ratio, MEK1 recruitment to arrestin2: 0.004
[4]; Data3
  ΔBRET ratio, MEK1 recruitment to arrestin2: 0.005
[4]; V2 receptor T347A mutant, in words
  recruitment of MEK1 to arrestin2: significantly increased
[5]; Data1
  ΔBRET ratio, MEK1 recruitment to arrestin2: 0.008
[5]; Data2
  ΔBRET ratio, MEK1 recruitment to arrestin2: 0.005
[5]; Data3
  ΔBRET ratio, MEK1 recruitment to arrestin2: 0.008
[5]; wild-type V2 receptor, in words
  recruitment of MEK1 to arrestin2: significantly increased
[6]; S363A-S364A mutations in V2R, in words
  vasopressin-induced interaction between c-Raf-1 and arrestin2: abolished
[6]; Data1
  ΔBRET ratio, c-Raf-1 recruitment to arrestin2: 0
[6]; Data2
  ΔBRET ratio, c-Raf-1 recruitment to arrestin2: 0.001
[6]; Data3
  ΔBRET ratio, c-Raf-1 recruitment to arrestin2: 0
[7]; Data1
  ΔBRET ratio, c-Raf-1 recruitment to arrestin2: 0.001
[7]; Data2
  ΔBRET ratio, c-Raf-1 recruitment to arrestin2: 0.001
[7]; Data3
  ΔBRET ratio, c-Raf-1 recruitment to arrestin2: 0
[8]; Data1
  ΔBRET ratio, c-Raf-1 recruitment to arrestin2: 0.005
[8]; Data2
  ΔBRET ratio, c-Raf-1 recruitment to arrestin2: 0.005
[8]; Data3
  ΔBRET ratio, c-Raf-1 recruitment to arrestin2: 0.006
[9]; T347A mutant of the V2 receptor, in words
  c-Raf-1 recruited to arrestin, compared with wild-type V2 receptor: significantly less
[9]; Data1
  ΔBRET ratio, c-Raf-1 recruitment to arrestin2: 0.006
[9]; Data2
  ΔBRET ratio, c-Raf-1 recruitment to arrestin2: 0.002
[9]; Data3
  ΔBRET ratio, c-Raf-1 recruitment to arrestin2: 0.005
[10]; Data1
  ΔBRET ratio, c-Raf-1 recruitment to arrestin2: 0.014
[10]; Data2
  ΔBRET ratio, c-Raf-1 recruitment to arrestin2: 0.012
[10]; Data3
  ΔBRET ratio, c-Raf-1 recruitment to arrestin2: 0.015
